Data reported in patent US6465396B1, “Method to promote growth of a plant” (Nara Institute of Science and Technology, priority 1999, dated 2002).
Like-named read-outs stand apart in the source and are kept apart here.

Assays:
rice plant bodies = experiment: Plant growth test, rice; assay type: in vivo, Oryza sativa L.; conditions: 2 weeks cultivation
Text: The effect of formate salts addition observed on plant growth was investigated. The seeds of rice were sterilized and seeded into a glass tube (130 mm×40 mm I.D) containing medium described below. The contents of the medium are ½MS salt, 0.1% gellan gum and various concentrations of sodium formate. The pH was adjusted to 6.0 by addition of 1N sodium hydroxide and the medium was sterilized by autoclave treatment. […] After cultivation for 2 weeks under this condition, the extent of growth was estimated by measurement of length of the aerial part and wet weight of plant bodies.

[1] = tested on: kidney bean (Phaseolus vulgaris L.: tsurunashiinngenn); conditions: 2 mM, FIG. 5
Experimental: (§1) The plants were seeded under a vermiculight.
(§2) Generation of oxygen was measured by clark type oxygen electrode. The cuvette (LD2/2 type), the oxygen electrode controller (CB 1-D3 type) and the light source (LS-2, Hansatec corp.) were adopted as components of the measuring device. The chamber of cuvette contained in this device is composed of combination of a chamber, capable of hermetically sealing with diameter of 35 mm and volume of 5 ml, and an oxygen electrode. As upper side of the chamber is transparent, arbitrary intensity of light can be illuminated. The plant body described above, after administration of formic acid, was enclosed in the chamber and sealed hermetically. It was illuminated using a halogen lamp as the light source, and the rate of oxygen generation was measured under the air containing 5% of carbon dioxide. Unless specified otherwise, the measurement was performed under the light adjusted to a intensity of 253 μmol quanta/m^2·s using a red filter or an attenuation filter. The oxygen generation was calculated by dividing the obtained value with the surface area of the leaf.

[2] = tested on: tabacco (Nicotina tabacum L.: SRI); conditions: 2 mM, FIG. 6
Experimental: as §1, §2

[3] = tested on: rice (Oryza sativa L.: Hinihikari); experiment: Photo-oxidation damage, photosynthetic ability as oxygen generation rate, rice leaves; conditions: for residual photosynthetic ability (oxygen generation rate): when control sample was reduced to 30%, concentration not given, FIG. 15
kidney bean = conditions: FIG. 19
Experimental: The seeds of kidney bean (Phaseolus vulgaris L.: tsurunashiinngenn) were used for the experiments. The plants were seeded under a vermiculight. They were grown under the light intensity of 150 μmol quanta/m^2·s. Normal leaves derived from the plant bodies of 2 to 4 weeks old were used for the experiments.
In the case of rice plant, a portion containing petiole was excised from the plant bodies and it was immersed into 10 ml of sample compound in a tube. It was incubated for 30 min at 25° C. under 150 μmol quanta/m^2·s of illumination. […] After the administration, water in the leaf disk was excluded, the leaf was set in the chamber and the ability of photosynthesis was measured on the leaf. […]
After measurement of rate of photosynthesis as described above, the air without carbon dioxide was introduced into the chamber and the light was illuminated at the intensity of 1600 μmol quanta/m^2·s for a certain period. […] The rate of oxygen generation was measured after this treatment and inhibition of photosynthetic ability caused by photo-oxidation damage was thus evaluated.
To estimate sanity of photo-system, the fluorescence originated from chlorophyl, the center of photo-system, was measured on rice under the same condition described above after photo-oxidation damage. […] The fluorescence was measured before and after photo-oxidation damage to estimate Fv/Fm value.

tabacco = conditions: FIG. 18
Experimental: The seeds of tabacco (Nicotina tabacum L.: SRI) were used for the experiment. The plants were seeded under a vermiculight. They were grown under the light intensity of 150 μmol quanta/m^2·s. Normal leaves derived from the plant bodies of 4 to 6 weeks old were used for the experiments.
In the case of rice plant, a portion containing petiole was excised from the plant bodies and it was immersed into 10 ml of sample compound in a tube. It was incubated for 30 min at 25° C. under 150 μmol quanta/m^2·s of illumination. After administration of sample compounds, the leaves of rice were sliced and put in a chamber with diameter of 35 mm and the rate of oxygen generation (μmol O2/m^2·s) was estimated. In the case of other plants, a leaf disk with diameter of 35 mm was prepared prior to the experiment. […] After the administration, water in the leaf disk was excluded, the leaf was set in the chamber and the ability of photosynthesis was measured on the leaf. […]
After measurement of rate of photosynthesis as described above, the air without carbon dioxide was introduced into the chamber and the light was illuminated at the intensity of 1600 μmol quanta/m^2·s for a certain period. […] The rate of oxygen generation was measured after this treatment and inhibition of photosynthetic ability caused by photo-oxidation damage was thus evaluated. […]

FDH gene = conditions: ground part (root) of rice; pretreatment with formic acid administration; FIG. 14
Experimental: In the case of utilization for northern analysis, total RNA was isolated from leaf and root of rice cultivated under condition described above, using Isogen RNA purification kit (Nippon gene).
RNA was prepared from the aerial part and the ground part (root) respectively and the northern analysis was performed on these samples. Forty μg of the total RNA was applied to each lane and electrophoresis was performed on 1% agarose gel (containing 2.2 M formaldehyde). The gel was charged for the capillary blotting using Hybond N+membrane (Amersham) using 20×SSC. The hybridization was performed according to instruction of AlkPhosDIREST (Amersham) and detection was performed using CDP-Star (Amersham). The FDH cDNA (open reading frame:1130 bp), amplified by PCR, was used as probe DNA.

[4] = tested on: formate dehydrogenase (FDH); conditions: root of rice cultivated in the presence of 1.4 mM formic acid, 25° C., two weeks; FIG. 12
Experimental: Then the alteration of FDH activity by administration of formic acid was investigated. The rice plant bodies were cultivated in the presence or absence of 1.4 mM formic acid at 25° C. for two weeks. The aerial part and the ground part (root) was separated and the crude enzyme solution was prepared from each part. The enzyme solution was prepared to 1.5 mg/ml and FDH activities of the samples were measured. The FDH activity was measured using [^13C] formic acid as the substrate and detecting [^13C] CO2 in the supernatant by GC-MS.

O=C[O-].[Na+] [sodium formate]
growth promotion, wet weight of plant bodies (rice plant bodies; 125 ppm in medium, FIG. 8): 25%
growth promotion, length of aerial part (rice plant bodies; 125 ppm in medium, FIG. 9): 25%
growth promotion effect (rice plant bodies; 1000 ppm in medium): disappeared

O=C[O-].[K+] [potassium formate, Potassium formate]
effect on oxygen generation rate reduction caused by photo-oxidation damage [1]: exhibited inhibition
effect on oxygen generation rate reduction caused by photo-oxidation damage [2]: exhibited inhibition
dose-dependency of protection on photo-oxidation damage ([3]; 2 mM or 4 mM, FIG. 4): optimum protection
oxygen generation activity retained after photo-oxidation damage ([3]; 2 mM, 8 min strong light illumination in the absence of carbon dioxide, control reduced to about 30%, FIG. 1): 90%
time course of damage on photosynthetic ability ([3]; 2 mM, photo-oxidation damage treatment 2 min, 4 min, FIG. 2): the damage on photosynthetic ability was inhibited

CO [methanol]
reduction of Fv/Fm value caused by photo-oxidation damage (rice; 25 mM or 50 mM, FIG. 17): significant inhibition
damage on photo-system by chlorophyl fluorescence analysis (kidney bean; 100 mM): significantly alleviated
damage on photo-system by chlorophyl fluorescence analysis (tabacco; 100 mM): significantly alleviated
photosynthetic ability under various light intensities after photo-oxidation damage ([3]; methanol, especially under strong light illumination, FIG. 16): avoided photo-oxidation damage
residual photosynthetic ability (oxygen generation rate) [3]: 70%

O=CO [formic acid]
damage on photo-system by chlorophyl fluorescence analysis (kidney bean; 2 mM): potency
expression of FDH gene (FDH gene): significant increase
FDH activity compared to control group [4]: about twice
damage on photo-system by chlorophyl fluorescence analysis (tabacco; 2 mM): potency

O=CO [formate]
damage on photo-system (Fv/Fm) caused by photo-oxidation damage (rice; 2 mM, FIG. 7): avoided

O=C[O-].[Na+] [formate salt]
photosynthetic ability under various light intensities after photo-oxidation damage ([3]; formate salt, strong light illumination (inclination not altered under weak light), FIG. 3): inhibited damage on photosynthetic ability under strong light illumination
residual photosynthetic ability (oxygen generation rate) [3]: 60%
